This note sets out measurements from US9295732B2, “Conjugated TLR7 and/or TLR8 and TLR2 polycationic agonists” (CAYLA, priority 2013, dated 2016).

Where “and” joins values, the source holds several entries; their conditions need not be identical. Equal values may be shown once.

One data set addresses T1, murine TLR7 (Mus musculus, UniProt P58681).
T1 construct: host or cells: HEK293 (HEK-Blue™ mTLR7)
T1 sequence (P58681 27-1050): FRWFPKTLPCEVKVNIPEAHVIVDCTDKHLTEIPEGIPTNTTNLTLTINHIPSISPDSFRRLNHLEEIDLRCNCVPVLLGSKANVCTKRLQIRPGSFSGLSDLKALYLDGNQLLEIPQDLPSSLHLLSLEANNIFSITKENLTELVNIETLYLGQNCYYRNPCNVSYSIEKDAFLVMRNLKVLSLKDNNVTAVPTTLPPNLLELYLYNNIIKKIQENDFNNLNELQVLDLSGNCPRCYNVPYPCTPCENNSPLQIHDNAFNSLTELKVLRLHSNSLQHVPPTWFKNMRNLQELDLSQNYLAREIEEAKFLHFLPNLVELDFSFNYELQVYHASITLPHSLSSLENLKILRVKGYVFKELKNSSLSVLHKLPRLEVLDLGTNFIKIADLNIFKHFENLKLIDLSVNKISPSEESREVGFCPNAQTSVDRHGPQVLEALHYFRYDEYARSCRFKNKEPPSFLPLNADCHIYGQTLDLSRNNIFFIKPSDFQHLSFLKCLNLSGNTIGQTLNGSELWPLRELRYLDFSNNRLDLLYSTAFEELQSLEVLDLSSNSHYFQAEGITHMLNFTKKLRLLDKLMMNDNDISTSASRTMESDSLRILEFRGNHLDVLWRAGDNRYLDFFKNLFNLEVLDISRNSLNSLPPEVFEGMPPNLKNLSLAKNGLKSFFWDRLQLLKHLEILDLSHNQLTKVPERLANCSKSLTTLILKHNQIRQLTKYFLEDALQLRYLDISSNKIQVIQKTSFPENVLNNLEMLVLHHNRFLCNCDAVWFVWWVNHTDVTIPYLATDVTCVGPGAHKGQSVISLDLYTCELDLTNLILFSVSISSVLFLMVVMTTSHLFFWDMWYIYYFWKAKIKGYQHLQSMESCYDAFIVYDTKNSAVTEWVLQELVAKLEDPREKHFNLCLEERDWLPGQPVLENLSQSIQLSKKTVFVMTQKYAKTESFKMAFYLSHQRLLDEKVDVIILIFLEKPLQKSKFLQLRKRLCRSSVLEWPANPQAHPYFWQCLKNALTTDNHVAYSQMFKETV
The experiment in a line: HEK-Blue mTLR7 NF-κB/AP-1 SEAP reporter assay. The format is cell-based. The following applies: HEK-Blue mTLR7 cells, 10 μg/mL to 10 pg/ml, 24 hours, OD at 655 nm, FIG. 2. The gist of the method:
(§1)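 HEK293 cells stably expressing the given TLR, or RAW 264.7-derived cells (50,000 or 100,000 cells/well respectively), carry an NF-κB/AP-1-inducible SEAP reporter. Conjugated TLR7-TLR2 agonists at final 10 μg/mL to 10 pg/ml, 24 h at 37° C. SEAP read colorimetrically as OD at 655 nm in detection medium.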
For orientation: Reporter assays use an easily measured gene product as a stand-in for the process of interest.

A further data set has as its target T2, human TLR2 (Homo sapiens, UniProt O60603).
T2 construct: host or cells: HEK293 (HEK-Blue™ hTLR2)
The data set can be described thus: HEK-Blue hTLR2 NF-κB/AP-1 SEAP reporter assay. The format is cell-based. The following applies: HEK-Blue hTLR2 cells, 10 μg/mL to 10 pg/ml, 24 hours, OD at 655 nm, FIG. 3. The gist of the method:
as §1

The next data set concerns plasmid DNA (pDNA). The data set can be described thus: Gel shift (mobility shift) assay of pDNA complexation. The data set is classed as binding. The following applies: pDNA:molecule ratio 3:24 (w:w), 0.8% agarose gel, compared to pDNA alone. In short, it runs like this:
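Complexes of pDNA with TLR7-TLR2 polyamine molecules run on 0.8% agarose in TAE at 135 V for 21 min, ethidium bromide stained and viewed under UV. Complexation scored as partial or complete retardation of pDNA migration versus pDNA alone, complexed pDNA appearing as a smear in wells.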

Another data set relates to B16-F1 tumor. The experiment in a line: In vivo mouse B16-F1 tumor model, molecule alone. Details: species or system C57BL/6 mice. The conditions noted are these: by day 23, intra-tumoral injections, FIG. 8A. The method, then: Measurements were performed under gas anesthesia.
The second group received intra-tumoral injections of CL413 molecule alone (a TLR7-TLR2 Pam2CSK4-based molecule). Third and forth groups received intra-tumoral injections of the TLR2 ligand, Pam2CSK4 alone, and the TLR7 ligand alone, respectively. A fifth group received a combined treatment of Pam2CSK4 and TLR7 ligand, in solution at the equivalent molecule quantity of the respective TLR2 and TLR7 moieties in CL413 (in 100 μl Bionolyte G5® with Pluronic® F-68 2%) for a total of 3 injections.

Data set [1] in a line: Nanoparticle (lipoplex) size by dynamic light scattering.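 On all read-outs here: lipoplexes of TLR7-TLR2 polyamine conjugates with plasmid DNA, formed over 30 min at room temperature in serum-free medium or 5% glucose, diameter in nm, PDI dimensionless.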 The conditions noted are these: 25° C., triplicate; for Mean Diameter: complexes with pDNA 3:24 (w:w), dynamic light scattering; for PDI: polydispersity index of complexes with pDNA 3:24 (w:w).

T2 sequence (O60603 21-784): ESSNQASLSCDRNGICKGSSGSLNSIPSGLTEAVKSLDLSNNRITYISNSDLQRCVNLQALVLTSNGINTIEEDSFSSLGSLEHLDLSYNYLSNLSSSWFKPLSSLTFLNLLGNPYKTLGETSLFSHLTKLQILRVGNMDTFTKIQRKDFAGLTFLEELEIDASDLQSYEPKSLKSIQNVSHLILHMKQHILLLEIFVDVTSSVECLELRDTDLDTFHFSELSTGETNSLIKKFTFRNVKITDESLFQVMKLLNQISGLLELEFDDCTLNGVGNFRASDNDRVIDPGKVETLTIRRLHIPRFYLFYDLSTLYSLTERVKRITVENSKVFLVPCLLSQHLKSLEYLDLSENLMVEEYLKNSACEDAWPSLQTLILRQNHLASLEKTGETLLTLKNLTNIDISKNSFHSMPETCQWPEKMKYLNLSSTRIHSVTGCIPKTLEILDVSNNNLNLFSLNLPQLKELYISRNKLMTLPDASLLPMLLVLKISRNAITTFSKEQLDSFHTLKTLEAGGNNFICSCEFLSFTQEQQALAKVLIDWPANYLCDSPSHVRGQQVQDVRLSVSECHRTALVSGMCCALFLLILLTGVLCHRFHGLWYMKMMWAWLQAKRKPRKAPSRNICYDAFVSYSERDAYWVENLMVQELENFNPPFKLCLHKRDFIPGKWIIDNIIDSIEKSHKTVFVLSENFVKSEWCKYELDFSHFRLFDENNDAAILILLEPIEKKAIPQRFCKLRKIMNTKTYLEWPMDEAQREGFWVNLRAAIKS

For the compound “(6S,9S,12S,15S,18S,21R)-6,25-diamino-21-(4-((6-amino-2-(butylamino)-8-hydroxy-9H-purin-9-yl)methyl)phenylcarbamoyl)-12,15,18-tris(4-aminobutyl)-9-(hydroxyl methyl)-7,10,13,16,19-pentaoxo-4-thia-8,11,14,17,20-pentaazapentacosane-1,2-diyl dipalmitate [CL413]”, at murine TLR7, the “ability to activate mTLR7” value is on record as “activate mTLR7”. Also, the “ability to activate hTLR2” value on human TLR2 is “activate hTLR2”. For the same compound, the “ability to complex pDNA (retardation of pDNA migration in agarose gel)” value (“ability to complex pDNA” below) with plasmid DNA (pDNA) is reported as “inability to migrate through an agarose gel”. In addition, the tumor volume result with B16-F1 tumor was “no increase in tumor volume”.

For the compound `CCCCCCCCCCCCCCCC(=O)OCC(CSC[C@H](N)C(=O)N[C@@H](CCC(=O)NCCCNCCCCNCCCN)C(=O)Nc1ccc(Cn2c(O)nc3c(N)nc(NCCCC)nc32)cc1)OC(=O)CCCCCCCCCCCCCCC` (stereo partly drawn) [CL527, (6R,9S)-6,25-diamino-9-(4-((6-amino-2-(butylamino)-8-hydroxy-9H-purin-9-yl)methyl)phenylcarbamoyl)-7,12-dioxo-4-thia-8,13,17,22-tetraazapentacosane-1,2-diyl dipalmitate], the “ability to activate mTLR7” value at murine TLR7 is recorded as “activate mTLR7”. Besides, the “ability to activate hTLR2” value at human TLR2 is “activate hTLR2”. In addition, the “ability to complex pDNA” value in the data set on plasmid DNA (pDNA) is “inability to migrate through an agarose gel”. Further, in data set [1], the “Mean Diameter” value was 175.1 nm and 156.9 nm and 168.3 nm; the PDI was 0.253 and 0.239 and 0.258.

Consider `CCCCCCCCCCCCCCCC(=O)N[C@@H](CSCC(COC(=O)CCCCCCCCCCCCCCC)OC(=O)CCCCCCCCCCCCCCC)C(=O)N[C@@H](CO)C(=O)N[C@@H](CCCCN)C(=O)N[C@@H](CCCCN)C(=O)N[C@@H](CCCCN)C(=O)N[C@@H](CCCCN)C(=O)Nc1ccc(Cn2c(O)nc3c(N)nc(NCCCC)nc32)cc1` (stereo partly drawn) [CL534, ((6R,9S,12S,15S,18S,21S)-25-amino-21-(4-((6-amino-2-(butylamino)-8-hydroxy-9H-purin-9-yl)methyl)phenylcarbamoyl)-12,15,18-tris(4-aminobutyl)-9-(hydroxylmethyl)-7,10,13,16,19-pentaoxo-6-palmitamido-4-thia-8,11,14,17,20-pentaazapentacosane-1,2-diyl dipalmitate], for which the “ability to activate mTLR7” value at murine TLR7 is reported as “activate mTLR7”. The “ability to activate hTLR2” value at human TLR2 was “activate hTLR2”. In addition, the “ability to complex pDNA” value in the data set on plasmid DNA (pDNA) is given as “inability to migrate through an agarose gel”.

Turning to `CCCCCCCCCCCCCCCC(=O)OCC(CSC[C@H](N)C(=O)N[C@@H](COC(=O)c1ccc(Cn2c(O)nc3c(N)nc(NCCCC)nc32)cc1)C(=O)NCCCNCCCCNCCCN)OC(=O)CCCCCCCCCCCCCCC` (stereo partly drawn) [CL514, (6R,9S)-6,23-diamino-9-((4-((6-amino-2-(butylamino)-8-hydroxy-9H-purin-9-yl)methyl)benzoyloxy)methyl)-7,10-dioxo-4-thia-8,11,15,20-tetraazatricosane-1,2-diyl dipalmitate], the “ability to activate mTLR7” value at murine TLR7 is “activate mTLR7”. Further, the “ability to activate hTLR2” value on human TLR2 is given as “activate hTLR2”. For the same compound, the “ability to complex pDNA” value with plasmid DNA (pDNA) was “inability to migrate through an agarose gel”. Further, in data set [1], the “Mean Diameter” value is 249.1 nm and 309.6 nm and 258.3 nm; the PDI is 0.303 and 0.354 and 0.372.

With `CCCCCCCCCCCCCCCC(=O)OCC(CSC[C@H](N)C(=O)NCCCNCCCCNCCCNC(=O)CNC(=O)c1ccc(Cn2c(O)nc3c(N)nc(NCCCC)nc32)cc1)OC(=O)CCCCCCCCCCCCCCC` (stereo partly drawn) [CL553, (20R)-20-amino-1-(4-((6-amino-2-(butylamino)-8-hydroxy-9H-purin-9-yl)methyl)phenyl)-1,4,19-trioxo-22-thia-2,5,9,14,18-pentaazapentacosane-24,25-diyl dipalmitate], the “ability to activate mTLR7” value at murine TLR7 is reported as “activate mTLR7”. The “ability to activate hTLR2” value on human TLR2 is “activate hTLR2”. Moreover, the “ability to complex pDNA” value with plasmid DNA (pDNA) is “inability to migrate through an agarose gel”. Besides, in data set [1], the “Mean Diameter” value is 170.0 nm and 190.0 nm and 180.2 nm; the PDI is 0.226 and 0.230 and 0.237.
